These results are taken from patent publication US11434472B2, “Agent for removing undifferentiated iPS cells” (Sumitomo Pharma Co., Ltd., priority 2016, dated 2022).

SMILES strings stand for the structures.

Holding throughout (type): cell-based
Data set [1] relates to differentiation-inducing cell aggregates formed from human iPS cells. Put plainly: Effect on differentiation-inducing cell aggregates (Cleaved Caspase-3 immunostaining). As to conditions: 24 hours, aggregates without treatment 19%. The protocol:
Firstly, differentiation-inducing cell aggregates were prepared according to the following procedures.
According to a similar method to that of Test Example 2, the human iPS cells one day before subconfluence were cultured under feeder free conditions using the StemFit medium (AK03; Ajinomoto) in the presence of SB431542 (TGFβ signaling pathway inhibitory compound (TGFβR-i), 5 μmol/L) for 1 day. A 6-well plate (Iwaki, for cell culture, culture area 9.4 cm^2) was used as the plastic culture dish, and the number of plated cells for the human iPS cells dispersed into single cells was set 1.0×10^4. The cells were treated with cell dispersion using TrypLE Select (Life Technologies), and dispersed into single cells by pipetting operation. The cells were then suspended in 100 μl of a serum-free medium at 1.0×10^4 cells per well of a non-cell adhesive 96-well culture plate (PrimeSurface 96V-bottom plate, manufactured by SUMITOMO BAKELITE), and cultured in suspension at 37° C. and 5% CO2. As the serum-free medium (gfCDM+KSR), a serum-free medium which is 1:1 mixture of F-12 medium and IMDM medium supplemented with 10% KSR, 450 μmol/L 1-monothioglycerol, and 1×Chemically defined lipid concentrate was used. At the time of the start of suspension culture (day 0 after the start of suspension culture), Y27632 (final concentration: 20 μmol/L) was added to the medium, and the cells was further cultured using a medium containing Wnt signaling inhibitory compound (IWR-1e, 3 μmol/L).
After culturing at 37° C. and 5% CO2 for 24 hours, the medium was changed to the serum-free medium containing the present compound in a final concentration of 0.1 μmol/L or 1 μmol/L, or DMSO in a concentration equal thereto, and the cells were cultured for additional 24 hours. After 24 hours, the obtained cell aggregates were fixed with 4% paraformaldehyde to prepare frozen sections. […] The immunostained sections were observed by inverted fluorescence microscope (Keyence, BIREVO). In addition, the Cleaved Caspase-3 positive area was calculated using the NIH Image-J software.

The subject of data set [2] is human iPS cells. Put plainly: Evaluation of cytotoxic activity against iPS cells (DAPI nuclear staining, DAPI positive area). Conditions: 24 hours. As to the method:
Human iPS cells were cultured under feeder-free condition according to the method described in Scientific Reports, 4, 3594 (2014). The StemFit medium (AKO3N, Ajinomoto) was used as feeder-free medium, and Laminin511-E8 (Nippi) was used as feeder-free scaffold.
The subconfluent human iPS cells were washed with PBS and dispersed into single cells using TrypLE Select (Life Technologies). The human iPS cells were then seeded in a plastic culture dish coated with Laminin511-E8, and cultured under feeder-free conditions at 37° C. and 5% CO2 using the StemFit medium in the presence of Y27632 (ROCK inhibitory compound, 10 μmol/L). A 96-well plate (BD, for cell culture, culture area 0.35 cm^2) was used as the plastic culture dish, and the number of plated cells for the human iPS cells dispersed into single cells was set to 0.03×10^4. The medium was changed to Y27632-free StemFit medium 1 day after the seeding. Thereafter, the medium was changed to the Y27632-free StemFit medium once in 1 to 2 days. The cells were then cultured until subconfluent (60% of culture area is covered with the cells). To the human iPS cells was added the Stem Fit medium (AK03; Ajinomoto) to adjust the final concentrations of the compounds of Examples 1-2, 10-2, and 22 dissolved in DMSO to 10, 1, 0.1, and 0.01 μmol/L, and the cells were cultured for 24 hours.
After 24 hours, the medium was removed, the obtained cells were each fixed with 4% paraformaldehyde at 4° C. for 15 minutes, PBS solution containing DAPI (Sigma) was added thereto to perform nuclear staining for the cells, and then the cells were observed by inverted fluorescence microscope (Keyence, BIREVO). In addition, the DAPI positive area was calculated using the quantitative software of the microscope.

Data set [3] has as its system HCT-116 cells. Put plainly: Test for inhibiting sphere-forming ability of cancer cells. Conditions: Homo sapiens, 96 h, non-adherent serum-free sphere culture, 4 days, CellTiter-Glo, read-out: IC50 (Sphere IC50 value; concentration for 50% inhibition of cell proliferation). As to the method: The reliable methods established for measuring the self-renewal ability of cells which is one of the CSC's properties include a method for measuring the sphere-forming ability of cancer cells in non-adherent condition in the absence of serum (Cancer Res 65, 5506-5511 (2005)). HCT-116 cells were available from the American Type Culture Collection (ATCC). HCT-116 cells were cultured at 37° C. and 5% CO2 using the McCoy's 5a medium containing 10% fetal bovine serum (FBS), 100 U/ml penicillin, and 100 μg/ml streptomycin. HCT-116 cells were seeded in a 384 Well Black Clear Bottom Ultra-Low Attachment Microplate (Corning Cat. No. 3827) in an amount of 350-800 cells/well using the DMEM/F12 medium containing 2% B27 supplement (GIBCO), 20 ng/mL epidermal growth factor (EGF) (peprotech), 10 ng/mL basic fibroblast growth factor (bFGF) (peprotech), 5 μg/mL insulin (Sigma), and 1% penicillin/streptomycin. The test compounds were added into each well to adjust the final concentration of DMSO to 0.1%, and the cells were cultured for 4 days. The number of viable cells in each well was then measured with CeilTiter-Glo® Luminescent Cell Viability Assay (Promega) to calculate the concentration of each test compound for 50% inhibition of cell proliferation (Sphere IC50 value; μmol/L).
The experiment of Test Example 1 was performed for the compound of each Example. The concentration of each test compound for 50% inhibition of cell proliferation (Sphere IC50 value; μmol/L) is shown in the following Table.

Consider `CC(=O)Nc1ccc(/C=C/C(=O)Nc2cn(Cc3cccc(C(F)(F)F)c3)cn2)cc1.Cl` [Example 1-2, (2E)-3-[4-(Acetylamino)phenyl]-N-(1-[3-(trifluoromethyl)benzyl]-1H-imidazol-4-yl)prop-2-enamide hydrochloride], for which the figures for the “ratio of Cleaved Caspase-3 positive area in the cell aggregates” value in data set [1] (0.1 μmol/L) and in data set [1] (1 μmol/L) were 24% and 27%, respectively. For the same compound, the entries for the “ratio of viable cells to that of cells without treatment” value (shortened to “ratio … of cells without treatment”) in data set [2] (0.1 μmol/L), in data set [2] (1 μmol/L) and in data set [2] (10 μmol/L) were 53%, 25% and 14%, respectively. Moreover, the “concentration at which cytotoxic activity against human iPS cells was found” value in data set [2] (tested at 10, 1, 0.1 and 0.01 μmol/L) was at least 100 nM.
For `CC(=O)Nc1ccc(/C=C/C(=O)Nc2cn(Cc3cccc(Cl)c3)cn2)cc1` [Example 2], in data set [3], the IC50 was determined as 220 nM.
In the case of `CC(=O)Nc1ccc(/C=C/C(=O)Nc2cn(Cc3cccc(OC(F)(F)F)c3)cn2)cc1` [Example 3], in data set [3], the concentration for half-maximal inhibition (IC50) was 630 nM.
For `CC(=O)Nc1ccc(/C=C/C(=O)Nc2cn(Cc3cc(F)c(F)c(F)c3)cn2)cc1` [Example 4], the IC50 in data set [3] was under 10 nM.
Same read-out and setting: the result for `COc1ccc(/C=C/C(=O)Nc2cn(Cc3cc(F)c(F)c(F)c3)cn2)cc1OCCO` [Example 5, (E)-3-(3-(2-Hydroxyethoxy)-4-methoxyphenyl)-N-(1-(3,4,5-trifluorobenzyl)-1H-imidazol-4-yl)acrylamide] reads 60 nM.
Regarding `COc1ccc(/C=C/C(=O)Nc2cn(Cc3cccc(Cl)c3)cn2)cc1OCCO` [Example 6, (2E)-N-[1-(3-Chlorobenzyl)-1H-imidazol-4-yl]-3-[3-(2-hydroxyethoxy)-4-methoxyphenyl]prop-2-enamide], the IC50 in data set [3] was 60 nM.
Still for that read-out and setting: the result for `COc1ccc(/C=C/C(=O)Nc2cn(Cc3cccc(C(F)(F)F)c3)cn2)cc1OCCO` [Example 7] reads 90 nM; that for `N#Cc1ccc(/C=C/C(=O)Nc2cn(Cc3cccc(Cl)c3)cn2)cc1OCCO` [Example 8], 80 nM.
In the case of `O=C(/C=C/c1cccnc1)Nc1cn(Cc2cccc(Cl)c2)cn1` [Example 9, (2E)-N-(1-(3-Chlorobenzyl)-1H-imidazol-4-yl)-3-(pyridin-3-yl)prop-2-enamide], in data set [3], the concentration for half-maximal inhibition (IC50) is 890 nM.
`COc1ccc(C(=O)Nc2cn(Cc3cccc(Cl)c3)cn2)cc1OC.Cl` [Example 10-2, N-[1-(3-Chlorobenzyl)-1H-imidazol-4-yl]-3,4-dimethoxybenzamide hydrochloride]: the IC50 in data set [3] was found to be 630 nM. Also, the “ratio of Cleaved Caspase-3 positive area in the cell aggregates” value in data set [1] (1 μmol/L) was determined as 26%. Also, the figures for the “ratio … of cells without treatment” value in data set [2] (1 μmol/L) and in data set [2] (10 μmol/L) were 37% and 17%, respectively.
With `COc1ccc(C(=O)Nc2cn(Cc3cc(F)c(F)c(F)c3)cn2)cc1OC` [Example 13], the IC50 in data set [3] worked out at 60 nM.
On the same count and under the same terms, the same measure for `COc1ccc(NC(=O)c2cn(Cc3cc(F)c(F)c(F)c3)cn2)cc1OC` [Example 14]: 210 nM.
With `O=C(Nc1nc(CO)cs1)c1cn(Cc2cc(F)c(F)c(F)c2)cn1` [Example 16], the IC50 in data set [3] came out at 629 nM.
With `O=C(COc1ccc(CO)nc1)Nc1cn(Cc2cc(F)c(F)c(F)c2)cn1` [Example 17], the IC50 in data set [3] was under 10 nM.
Regarding `O=C(Nc1cn(Cc2cccc(C(F)(F)F)c2)cn1)c1ccc(CO)nc1` [Example 22, 6-(hydroxymethyl)-N-{1-[3-(trifluoromethyl)benzyl]-1H-imidazol-4-yl}nicotinamide], the “ratio … of cells without treatment” value in data set [2] (0.1 μmol/L) was 51%; in data set [2] (1 μmol/L), 31%.
